Literature values in patent US20260242330A1, “USE OF AN AMANTADINE MONONITRATE COMPOUND IN MANUFACTURE OF A MEDICAMENT FOR THE PREVENTION AND TREATMENT OF HYPERTENSION” (GUANGZHOU MAGPIE PHARMACEUTICALS CO., LTD., priority 2022, published 2026).

system: 24-hour blood pressure in primary hypertension; details: cited from earlier work

With `COCCc1ccc(OCC(O)CNC(C)C)cc1` (centres unmarked) [metoprolol] as the molecule, how does the “average 24-hour dynamic diastolic pressure decrease” value read?
The value was 4.6 mmHg.

And the “average 24-hour dynamic systolic pressure decrease” value?
The value was 6.66 mmHg.

With `Cc1cccc(Nc2ccncc2S(=O)(=O)NC(=O)NC(C)C)c1` [tolasemide] as the molecule, how does the “average 24-hour dynamic diastolic pressure decrease” value read?
The value was 2.42 mmHg.

What about the “average 24-hour dynamic systolic pressure decrease” value of the same molecule?
The value was 5.92 mmHg.

For `CCCCC(=O)N(Cc1ccc(-c2ccccc2-c2nnn[nH]2)cc1)[C@H](C(=O)O)C(C)C` [valsartan], which “average 24-hour dynamic diastolic pressure decrease” value is on record?
Its value is 6.04 mmHg.

And the “average 24-hour dynamic systolic pressure decrease” value?
Its value is 8.08 mmHg.

Which “average 24-hour dynamic diastolic pressure decrease” value does the source give for `CCOC(=O)[C@H](CCc1ccccc1)N[C@H]1CCc2ccccc2N(CC(=O)O)C1=O` [benazepril] here?
Its value is 3.33 mmHg.

What about the “average 24-hour dynamic systolic pressure decrease” value of the same molecule?
Its value is 6.74 mmHg.
